Assay results reported in US6461844B1, “Liver GalNAc-1-phosphate kinase” (The Board of Trustees of the University of Arkansas, priority 1995, dated 2002).
Blank lines part the entries; values can stand above or below the molecule they belong to.

Experiments:
GalNAc kinase [1] = target: T1, GalNAc kinase (Sus scrofa, UniProt A0A287BB25); assay: Phosphate donor specificity of GalNAc kinase; assay type: biochemical, pig; parameters: Radioactivity in Sugar-P: unit not given beside the values
T1 construct: This enzyme was purified about 1400-fold from the cytosolic fraction of pig kidney; from tissue; host or cells: pig kidney cytosol

GalNAc kinase [2] = target: T1, GalNAc kinase; assay: Effect of substrate concentration on GalNAc kinase activity (Km); assay type: biochemical, pig; conditions: 300 μM GalNAc; Lineweaver-Burk; read-out: Km for ATP
Method: (§1) In FIG. 3A, various amounts of GalNAc were added to otherwise standard incubation mixtures containing 300 μM ATP, and the amount of GalNAc phosphorylated by the purified enzyme was determined. In FIG. 3B, the data was replotted by the method of Lineweaver and Burk. In FIG. 3C, various amounts of the other substrate, ATP, were added to otherwise standard incubation mixtures containing saturating (300 μM) levels of GalNAc and the amount of phosphorylation of GalNAc by the purified enzyme was determined.
(§2) GalNAc kinase activity was assayed in incubation mixtures of 200 μl containing the following components: [^3H]GalNAc (10,000 cpm), 1 μmole of ATP, 2 μmoles of MgCl2, 20 μmoles of Tris-HCl buffer, pH 7.5, and various amounts of the enzyme preparations to be assayed. Following an incubation for the appropriate time, the reaction was stopped by heating at 100° C. for 5 min., and the incubation mixture was applied to a column of DE-52. The column was washed with at least 5 column volumes of 10 mM (NH4)HCO3 buffer to remove unbound material, and then GalNAc phosphate was eluted with 500 mM ammonium bicarbonate. Aliquots of the wash and eluent were removed and assayed for their radioactive content by scintillation counting.

GalNAc kinase [3] = target: T1, GalNAc kinase; assay: Azido-ATP[32P] photoaffinity labeling of the purified kinase; assay type: binding, pig; conditions: unlabeled nucleotide added
Method: The proteins were transferred to nitrocellulose membranes and exposed to film to detect the radioactive bands.
The purified enzyme fraction was incubated with azido-ATP[^32P], exposed to UV light and run on SDS gels. […] The product of the reaction was characterized as GalNAc-α-1-P by susceptibility of the phosphate group to mild acid hydrolysis, by its mobility on TLC and Dionex chromatography, and by high resolution NMR.
The GalNAc kinase was purified from the cytosolic fraction of pig kidney using the purification scheme described in the section above and outlined in Table I. Using this procedure, the kinase was purified about 1400-fold from crude extracts with a recovery of about 24%. […] In addition, the amount of label in that band increased with increasing amounts of the probe, and the labeling was inhibited by adding unlabeled ATP, but not by other nucleotides. […] Moreover, gel filtration of the native enzyme on Sephadex G-100 gave an activity peak in the region where proteins of about 48-51 kDa elute. Thus the native protein is probably a monomer of about 50 kDa molecular weight. Sufficient amounts of this protein band can be prepared to determine the amino acid sequence and to prepare antibodies.

[4] = Acid lability of the phosphate group of sugar phosphates; assay type: physicochemical; conditions: 0.05 N HCl, 100° C., up to 50 minutes
Method: A large amount of the radioactive product formed by the GalNAc kinase was isolated and purified on a DE-52 column, and this product was suspended in 0.05 N HCl and placed in a hot water bath at about 95° C. At various times, aliquots of the reaction mixture were removed, cooled, neutralized and passed through a column of DE-52 to determine whether the ^3H-GalNAc had lost its charge. Standards of Glc-6-P, Glc-1-P, GalNAc-1-P and GlcNAc-6-P were also subjected to the same hydrolysis conditions and were tested for their susceptibility to loss of phosphate.
The radioactive material was examined for purity and characterization by TLC chromatography on cellulose plates in 70% ethanol: 1 M ammonium acetate, pH 7.5 (7:3), or in 70% ethanol: 1 M ammonium acetate, pH 3.5 (7:3). The product was subjected to HPLC on the Dionex apparatus, using a column to separate various sugar phosphates from each other. Sugar-1-phosphates were distinguished from sugar-6-phosphates by their susceptibility to acid hydrolysis in 0.05 N HCl at 100° C. Sugar-1-phosphates are rapidly hydrolyzed whereas sugar-6-phosphates are stable. […]
The radioactive product from the ion exchange columns was suspended in 0.05 N HCl and heated at 100° C. for various periods of time. […] The amount of radioactivity that emerged in the wash was taken as a measure of removal of the phosphate group. […]

[5] = system: UDP-GlcNAc pyrophosphorylases; conditions: UDP-GlcNAc = 100%; cited from earlier work
[6] = system: UDP-GlcNAc pyrophosphorylase; conditions: partially purified enzyme; cited from earlier work
[7] = substrate: CC(=O)N[C@H]1C(O)O[C@H](CO)[C@H](O)[C@@H]1O; assay: Effect of substrate concentration on GalNAc kinase activity (Km); assay type: biochemical, pig; conditions: other: 300 μM ATP; Lineweaver-Burk; pH 7.5
Method: as §1, §2

- activity as phosphate donor (GalNAc kinase [1]): by far the best phosphate donor
- Radioactivity in Sugar-P (GalNAc kinase [1]; nucleotide added at 5 mM): 10,195
- Specific Activity (GalNAc kinase [1]; nucleotide added at 5 mM): 160.0 nmol/mg
- Km (GalNAc kinase [2]): 100 µM
- effect on labeling of the 50 kDa band by ATP[32P] photoaffinity probe (GalNAc kinase [3]): inhibited
Molecule: Nc1ncnc2c1ncn2[C@@H]1O[C@H](COP(=O)(O)OP(=O)(O)OP(=O)(O)O)[C@@H](O)[C@H]1O [ATP]

Molecule: CC(=O)N[C@@H]1C(O)[C@H](O)[C@@H](COP(=O)(O)O)O[C@H]1O (stereo partly drawn) [GlcNAc-6-phosphate]
- stability to acid hydrolysis [4]: quite stable

Molecule: CC(=O)N[C@H]1[C@@H](OP(=O)(O)OP(=O)(O)OC[C@H]2O[C@@H](n3ccc(=O)[nH]c3=O)[C@H](O)[C@@H]2O)O[C@H](CO)[C@H](O)[C@@H]1O [UDP-GalNAc]
- activity towards substrate [5]: 3%
- rate of pyrophosphorolysis relative to UDP-GlcNAc [6]: about 2.8%

B1: GalNAc kinase (Sus scrofa) (protein)
chain: MATEGPPVHQVQVAEHPRLLKLKEIFNSKFGSIPKFYVRAPGRVNIIGEHIDYCGYSVLPMAVEQDMLIAVEPVKTHTLQLANTNPLYPDFNTSADNIQIDKTKPLWHNYFLCGFKGIQEHFGLSNLIGMNCLVDGNIPPSSGLSSSSALVCCAGLVTLTVLGMNLSKVELAEICAKSERYIGTEGGGMDQSISFLAEEGTAKLIEFSPLRATDVKLPSGAVFVIANSCVEMNKAATSHFNIRVMECRLAAKLLAKHRSLQWDKVLRLEEVQAKLGVSLEEMLLITEDTLHPEPYSPEEVCQCLGISLQELKTQILSPNTQDVLTFKLYQRAKHVYSEAARVLQFKKICEEAPDDMVQLLGELMNQSHVSCRDMYECSCPELDQLVDICRKFGAQGSRLTGAGWGGCTVSIVLADKLPSFLANVHEAYYQKSGRSLAPEKQSLFATKPGGGALVFLEA
notes: This enzyme was purified about 1400-fold from the cytosolic fraction of pig kidney; from tissue; host or cells: pig kidney cytosol
- Km [7]: 50 µM
